From article PMC10447463, “Data-mining unveils structure–property–activity correlation of viral infectivity enhancing self-assembling peptides” (Nature Communications, 2023)
Like-named read-outs stand apart in the source and are kept apart here.

What was measured:
[1] = type: physicochemical; settings: for ThT Cat. / ThT-Fluorescence (categorical): ThT-active if fluorescence at least twice the control
Procedure, shortened: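 Fibrils (1 mg/mL solution) were mixed with 50 µM ThT in PBS for 15 min at RT, and fluorescence was read at λex 440/λem 488 nm against a PBS blank, as a triplicate mean ± SD. Zeta potential came from electrophoretic mobility (Smoluchowski) after 1 d aggregation at 1 mg/mL in PBS pH 7.4, diluted into 1 mM KCl.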

[2] = Turbidity, derived count rate of scattered light; type: physicochemical; settings: for Count Rate: derived count rate of scattered light (turbidity); for Log10 Count Rate: turbidity, derived count rate of scattered light, data of Figure 2D
[3] = system: HIV-1 infection of TZM-bl cells; assay: HIV-1 infectivity enhancement assay, β-galactosidase luminescence; type: cell-based; settings: for Rel-EFC / Log10 Infection Rel EFC: 1.3 µM peptide; for Rel-EFC: infection relative to EF-C (QCKIKQIINMWQ = 1); for Log10 Infection Rel EFC: log10 of infection relative to EF-C; for Log Infectivity: Log10 infection relative to EF-C, TZM-bl cells, asymmetric std dev errors; for Log10 Infection Rel EF-C: HIV-1 infection of TZM-bl cells; for Log10 of Rel to EFC (Feb2021): Log10 of infection relative to EF-C; for Log10 Inf. rel. to EF-C: log10 of HIV-1 infection of TZM-bl cells relative to EF-C (EF-C = 0)
[4] = ThT fluorescence category, 1 if Rel. ThT >2
[5] = Fig. S7 panel A (plotted against β-sheet content)
[6] = Log10 of infection rate relative to EF-C, Figure 3A source data
[7] = infection rate relative to EF-C, log10, data of Figure 2D
[8] = infection rate relative to EF-C, log10, source data of Figure 2C
[9] = Fig. S7 panel B (plotted against CR), rounded to two decimals

| Substance | Tht category (> 2 to blank = +) ([1]; Fig S10 panel D) | ThT Cat, ([1]; ThT category, 1 if Rel. ThT >2) | ThT Cat. [1, 4] | ThT Cat. / ThT-Fluorescence (categorical) [1] | Count Rate [2] | Log10 Count Rate [2] | Rel-EFC [3] | Log10 Infection Rel EFC [3] | Log Infectivity [3, 5] | Log10 Infection Rel EF-C [3, 6] | Log10 Infection Rel EF-C [3, 7] | Log10 Infection Rel EF-C [3, 8] | Log10 of Rel to EFC (Feb2021) ([3]; all peptides of FigS16) | Log10 of Rel to EFC (Feb2021) ([3]; second listing, peptides with TEM 2cat 0) | Log10 Inf. rel. to EF-C [3] | ThT Cat. ([1]; Fig S10 panel E) | Tht category (> 2 to blank = +) ([1]; FigS12 panel A) | ThT Cat, ([1]; FigS12 panel B) | Log Infectivity [3, 9] |
| --- | --- | --- | --- | --- | --- | --- | --- | --- | --- | --- | --- | --- | --- | --- | --- | --- | --- | --- | --- |
| KIKIKIKIYYYY | 0 (ThT-inactive (N-Fold <2)) | 0 (ThT-inactive (N-Fold <2)) | 0 (ThT-inactive (N-Fold <2)) | 0 (ThT-inactive (N-Fold <2)) | 9918 | 3.996 | 1,38 | 0,14 | 0.1402 | 0.14 | 0.1402 | 0.1402 | 0.14 | 0.14 | 0.1402 |  |  |  |  |
| KIKIQI | 0 (ThT-inactive (N-Fold <2)) | 0 (ThT-inactive (N-Fold <2)) | 0 (ThT-inactive (N-Fold <2)) | 0 (ThT-inactive (N-Fold <2)) | 108.3 | 2.035 | 0,07 | -1,17 | -1.169 | -1.17 | -1.169 | -1.169 |  |  | -1.169 | 0 (ThT-inactive (N-Fold <2)) | 0 (ThT-inactive (N-Fold <2)) | 0 (ThT-inactive (N-Fold <2)) | -1.17 |
| KIKIQIAMWQ | 1 (ThT. Cat is 1, if Rel. ThT >2) | 1 (ThT. Cat is 1, if Rel. ThT >2) | 1 (ThT. Cat is 1, if Rel. ThT >2) | 1 (ThT. Cat is 1, if Rel. ThT >2) | 540.9 | 2.733 | 0,39 | -0,41 | -0.4109 | -0.41 | -0.4109 | -0.4109 | -0.41 |  | -0.4109 |  |  |  |  |
| KIKIQIN | 0 (ThT-inactive (N-Fold <2)) | 0 (ThT-inactive (N-Fold <2)) | 0 (ThT-inactive (N-Fold <2)) | 0 (ThT-inactive (N-Fold <2)) | 43.43 | 1.638 | 0,27 | -0,58 | -0.5766 | -0.58 | -0.5766 | -0.5766 | -0.58 |  | -0.5766 |  |  |  |  |
| KIKIQINAWQ | 1 (ThT. Cat is 1, if Rel. ThT >2) | 1 (ThT. Cat is 1, if Rel. ThT >2) | 1 (ThT. Cat is 1, if Rel. ThT >2) | 1 (ThT. Cat is 1, if Rel. ThT >2) | 1494 | 3.174 | 0,54 | -0,27 | -0.2703 | -0.27 | -0.2703 | -0.2703 | -0.27 |  | -0.2703 |  |  |  |  |
| KIKIQINM | 0 (ThT-inactive (N-Fold <2)) | 0 (ThT-inactive (N-Fold <2)) | 0 (ThT-inactive (N-Fold <2)) | 0 (ThT-inactive (N-Fold <2)) | 262.1 | 2.418 | 0,36 | -0,44 | -0.4404 | -0.44 | -0.4404 | -0.4404 | -0.44 |  | -0.4404 | 0 (ThT-inactive (N-Fold <2)) |  |  | -0.44 |
